20 compounds from patent US8383651B2, “Compounds which selectively modulate the CB2 receptor” (Boehringer Ingelheim International GmbH, priority 2009, dated 2013) can be followed below.

The target in one assay is T1, human CB1R (Homo sapiens, UniProt P21554).
T1 construct: host or cells: CHO cells
As to the kind of experiment: CB1R mediated modulation of cAMP synthesis. The assay is classed as cell-based. Conditions: inhibition of forskolin-stimulated cAMP synthesis. The method, then:
C. CB1R Mediated Modulation of cAMP Synthesis:
Compounds of the invention are evaluated for their CB1 agonist or inverse agonistic activity in accordance with the following experimental method.
(§1) CHO cells expressing human CB1R (Euroscreen) are plated at a density of 5000 cells per well in 384 well plates and incubated overnight at 37° C. After removing the media, the cells are treated with test compounds diluted in stimulation buffer containing 1 mM IBMX, 0.25% BSA and 10 uM Forskolin. The assay is incubated for 30 minutes at 37° C. Cells are lysed and the cAMP concentration is measured using DiscoverX-XS cAMP kit, following the manufacturer's protocol. In this setting, agonists will decrease forskolin induced production of cAMP while inverse agonists will further increase forskolin induced production of cAMP. EC50 of agonists are calculated as follows. The maximal amount of cAMP produced by forskolin compared to the level of cAMP inhibited by 1 uM CP55940 is defined as 100%. The EC50 value of each test compound is determined as the concentration at which 50% of the forskolin-stimulated cAMP synthesis is inhibited. Data is analyzed using a four-parameter logistic model. (Model 205 of XLfit 4.0).

The target in another assay is T2, human CB2R (Homo sapiens, UniProt P34972).
T2 construct: host or cells: CHO cells
Nature of the assay: CB2R mediated modulation of cAMP synthesis. It counts as cell-based. As for the experimental part:
B. CB2R Mediated Modulation of Camp Synthesis:
Compounds of the invention are evaluated for their CB2 agonist or inverse agonistic activity in accordance with the following experimental method.
as §1, with “CB2R” for “CB1R”

Where [1] appears, read: CB1 EC50, CHO cells expressing human CB1R.
The mark [2] stands for this setting: CHO cells expressing human CB1R, read-out: CB1 EC50.
[3] abbreviates: CHO cells expressing human CB2R, inhibition of forskolin-stimulated cAMP synthesis, read-out: CB2 EC50.

pEC50: −log10 of the molar value. Where two headings read alike, the source gives them in different places. A value given as a limit tells only on which side of the number the result lay.

T2 sequence (P34972 whole entry): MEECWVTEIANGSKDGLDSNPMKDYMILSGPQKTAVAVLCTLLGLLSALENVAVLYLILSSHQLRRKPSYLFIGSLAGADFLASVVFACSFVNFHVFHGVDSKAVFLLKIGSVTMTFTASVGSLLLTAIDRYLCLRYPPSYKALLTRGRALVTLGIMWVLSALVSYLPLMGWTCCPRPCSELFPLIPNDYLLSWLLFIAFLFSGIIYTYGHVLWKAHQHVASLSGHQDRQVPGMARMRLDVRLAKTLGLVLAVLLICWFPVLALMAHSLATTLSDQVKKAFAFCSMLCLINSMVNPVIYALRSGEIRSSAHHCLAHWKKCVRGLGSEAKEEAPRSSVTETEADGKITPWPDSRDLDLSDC
T1 sequence (P21554 whole entry): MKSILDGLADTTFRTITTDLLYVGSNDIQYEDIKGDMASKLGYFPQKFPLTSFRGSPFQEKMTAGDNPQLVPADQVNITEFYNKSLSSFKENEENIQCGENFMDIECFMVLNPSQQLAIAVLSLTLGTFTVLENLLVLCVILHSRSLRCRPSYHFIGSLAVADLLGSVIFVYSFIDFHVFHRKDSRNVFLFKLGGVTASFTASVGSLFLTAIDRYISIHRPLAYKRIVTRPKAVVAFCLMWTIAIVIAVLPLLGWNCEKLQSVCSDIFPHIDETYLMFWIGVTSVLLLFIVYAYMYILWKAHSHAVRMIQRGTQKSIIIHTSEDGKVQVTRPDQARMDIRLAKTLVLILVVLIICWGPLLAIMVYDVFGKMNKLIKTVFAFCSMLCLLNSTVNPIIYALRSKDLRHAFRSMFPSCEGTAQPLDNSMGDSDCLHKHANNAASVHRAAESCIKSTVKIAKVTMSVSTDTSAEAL

With `Cc1ncc(C(C)(C)c2cc(NC(=O)C(C)(C)S(=O)(=O)C3CCOCC3)on2)o1`, the pEC50 on human CB1R (setting [1]) was < 3.70; on human CB2R, 8.17. As to `CC(C)(c1cc(NC(=O)C(C)(C)S(=O)(=O)C2CCOCC2)on1)c1cnc(-c2ccccc2)o1`, the figures for the pEC50 on human CB1R (setting [1]) and at human CB2R were < 4.30 and 7.68, respectively. `CC(C)(C(=O)Nc1nc(-c2ncco2)n[nH]1)S(=O)(=O)C1CCOCC1`: the pEC50 at human CB1R (setting [1]) is < 4.30; on human CB2R, 7.08. Regarding `Cc1cc(-c2n[nH]c(NC(=O)C(C)(C)S(=O)(=O)C3CCOCC3)n2)no1`, the results for the pEC50 at human CB1R (setting [2]) and at human CB2R (setting [3]) were < 4.30 and 6.57, respectively.

For the compound `Cc1cc(-c2nnc(NC(=O)C(C)(C)S(=O)(=O)CCC(C)C)[nH]2)no1`, the pEC50 on human CB1R (setting [1]) was < 4.30; at human CB2R, 7.43. With `Cc1cc(-c2nnc(NC(=O)C(C)(C)S(=O)(=O)CCCC(F)(F)F)[nH]2)no1`, the pEC50 at human CB1R (setting [2]) is < 4.30; on human CB2R (setting [3]) it was 6.57. As for `CC(C)(C(=O)Nc1nnc(-c2nccs2)[nH]1)S(=O)(=O)C1CCOCC1`, the pEC50 at human CB1R (setting [2]) was < 4.30; at human CB2R (setting [3]) it was 6.52. Take `CC(C)CCS(=O)(=O)C(C)(C)C(=O)Nc1nnc(-c2ncco2)[nH]1`: the pEC50 at human CB1R (setting [2]) was < 4.30; at human CB2R (setting [3]), 6.76. `Cc1cc(-c2n[nH]c(NC(=O)C(C)(C)S(=O)(=O)C3CCOCC3)n2)n(C)n1`: the negative-log EC50 (pEC50) on human CB1R (setting [2]) was < 4.30; at human CB2R (setting [3]), 6.31. Regarding `Cc1cc(-c2nnc(NC(=O)C(C)(C)S(=O)(=O)C3CCCCC3)[nH]2)on1`, the results for the pEC50 on human CB1R (setting [1]) and at human CB2R were < 4.70 and 7.26, respectively. With `Cc1cc(-c2nnc(NC(=O)C(C)(C)S(=O)(=O)CCC3CCOCC3)[nH]2)on1`, the pEC50 on human CB1R (setting [2]) is < 4.30; at human CB2R (setting [3]), 6.85. Turning to `Cc1cc(-c2nnc(NC(=O)C(C)(C)S(=O)(=O)CCC(C)C)[nH]2)on1`, the pEC50 at human CB1R (setting [2]) was < 4.30; at human CB2R (setting [3]), 6.85. Take `Cc1nnc(C(C)(C)c2cc(NC(=O)C(C)(C)S(=O)(=O)c3ccc(F)cc3)on2)o1`: the negative-log EC50 (pEC50) at human CB1R (setting [1]) is < 4.30; on human CB2R, 7.01. Turning to `Cc1nnc(C(C)(C)c2cc(NC(=O)C(C)(C)S(=O)(=O)CCCC(F)(F)F)on2)o1`, the pEC50 on human CB1R (setting [1]) is 4.64; at human CB2R, 7.74.

Take `Cc1ncc(C(C)(C)c2cc(NC(=O)C(C)(C)S(=O)(=O)C3CCOCC3)on2)s1`: the pEC50 at human CB1R (setting [1]) was < 4.30; on human CB2R it was 8.47. Turning to `Cc1ncc(C(C)(C)c2cc(NC(=O)C(C)(C)S(=O)(=O)C3CCN(S(C)(=O)=O)CC3)on2)s1`, the negative-log EC50 (pEC50) at human CB1R (setting [1]) is 4.60; on human CB2R, 7.55. Take `CCc1ncc(C(C)(C)c2cc(NC(=O)C(C)(C)S(=O)(=O)C3CCN(S(C)(=O)=O)CC3)on2)o1`: the negative-log EC50 (pEC50) is 4.58 at human CB1R (setting [1]) and 7.60 on human CB2R.

Consider `Cc1nnc(C(C)(C)c2cc(NC(=O)C(C)(C)S(=O)(=O)C3CCN(S(C)(=O)=O)CC3)on2)o1`, for which the pEC50 on human CB1R (setting [2]) is < 4.30; on human CB2R (setting [3]), 6.79. `Cc1ncc(C2(c3cc(NC(=O)C(C)(C)S(=O)(=O)C4CCOCC4)on3)CCCC2)o1` [drawing 84]: the figures for the pEC50 on human CB1R (setting [1]) and at human CB2R were 4.52 and 8.34, respectively. Turning to `Cc1ncc(C2(c3cc(NC(=O)C(C)(C)S(=O)(=O)C4CCOCC4)on3)CCCC2)o1` [drawing 89], the pEC50 on human CB1R (setting [1]) was 4.52.

As usually defined, the pEC50 is the negative decadic logarithm of the EC50, by convention in mol/L.
